SMILES strings stand for the structures. Converted amounts (≈) assume the structure as drawn.

Usually solubility stands for how much of the substance goes into solution per volume. A lower solubility goes with a poorly soluble substance. For orientation: IC50 means the midpoint of a concentration-inhibition curve. Read a low IC50 as higher potency. One may read the inhibition as the share of the control response that was lost under treatment.

Data set [1] can be described thus: Solubility limit noted in the cyst prevention assay. In kind it is physicochemical.
Data set [2] deals with primary huADPKD cells. As to the kind of experiment: Cyst attack cystogenesis bioassay, cyst image tracking. It counts as cell-based, human. The following applies: 3 μM. How it is done:
Primary cells capable of 3D cystogenesis were seeded as described above for the cyst prevention cytogenesis bioassay. In the cyst attack assay, cysts were allowed to develop to 12-24 in number and allowed to expand to a significant size. Specific cysts or cyst clusters were marked in each well. A test compound was then added to attack the already formed cysts to determine effects on the cysts. […] The timing of addition of the compound, frequency of addition of the compound and concentration of the compound varied.
A prominent cyst was imaged before treatment and daily for 6 days after treatment began. This larger cyst increased by 2.5 to 3.0 fold in the presence of the industry standard drug, tolvaptan, a vasopressin receptor antagonist.

The subject of data set [3] is primary huADPKD cells. As to the kind of experiment: Cyst prevention cystogenesis bioassay, 3D biogel, 48-well, light microscopy. The following applies: for overt cell cytotoxicity: concentrations tested; for effect on cyst appearance and expansion: midway point and end of assay, various concentrations. The method, then: Primary cells capable of 3D cystogenesis were seeded into a 3D biogel that is liquified before the gel sets. The gel set undisturbed within a humidified 5% CO2 incubator for 18 hours. An equal volume of DBM RenalCyte media was then overlaid in each well of a 48-well plate. “Add” feeds were performed until the well was full, and then half of the volume of media was removed and new media added at the same volume thereafter. […] In the cyst prevention assay, cysts were challenged as soon as they started to appear (small in dimension and few in number per well) with a test compound. The timing of addition of the test compound, frequency of addition of the test compound and concentration of the test compound varied. The effects on the cysts were followed by light-based microscopic imaging over time. In addition to visual inspection by light-based microscopic imaging occurring throughout the study, the number of cysts were counted per well at the end of the study and light-based endpoints were examined, such as 3D CellTiter-GLO® from Promega (Madison, Wis.) (to quantify viable cells), secretion (to quantify cell membrane integrity), and/or Caspase-GLO® (Promega) (to measure induction of apoptosis) in multiplex fashion. A modified version of this assay images after seeding the biogel each day for complete prevention of cyst formation versus counterpart controls over a 14 to 21-day period. Multiple replicates were performed, and cells from multiple donors were tested.

In data set [4] the test system is ADPKD cell cultures. As to the kind of experiment: Cyst prevention assay, 3D CellTiterGLO cell viability, CRC design. In kind it is cell-based, human. How it is done: In this assay, the ADPKD cell cultures were incubated on 4 days before 1 week of treatment with drugs, media only or DMSO only.
(In general: ATP-based viability assays read luminescence as a measure of living cells.)

In data set [5] the test system is ADPKD cell cultures. As to the kind of experiment: Cyst reduction assay, 3D CellTiterGLO cell viability, CRC design. It counts as cell-based, human. The text has this:
Results are shown in FIG. 26 for a cyst reduction assay.

Data set [6] concerns Immortal Human ADPKD Cell Line. The experiment in a line: TEER of cell monolayers pre- and post-amiloride. In kind it is cell-based. The following applies: amiloride treatment. How it is done:
High-titer aliquots (10^9 pfu) of Lenti-SV40T, Lenti-hTERT-Neo and Lenti-CDK4 from Applied Biological Materials (ABM) (Richmond, BC, Canada) and Lenti-CDNK2 (Sigma-Aldrich) were diluted into transfection media to 10^7 pfu for cell challenge. In some cases, Lenti-hTERT and Lenti-CDK4 or Lenti-CDNK2 were combined as a newer immortalization method. huADPKD primary cultures were selected for immortalization based on a compelling genotype, an acceptable cell proliferation rate, and an ability to form cysts in 3D Matrigel culture. Mixed immortalized cultures were established by both methods from primary cultures where the lifetime of the cells were doubled from 5 passages (primary) to 10 passages (mixed immortal). The SV40T method was successful in generating immortal cell cultures that formed electrically tight polarized cell monolayers for transepithelial resistance (TEER) measurements and likely Ussing chamber-based electrophysiological recording of ion transport. These immortal human ADPKD cell monolayers may also be useful in fluid transport assays. Transepithelial/transendothelial electrical resistance (TEER) data for a new immortalized human ADPKD cell line are shown in Table 1 below.

In another data set the test system is ADPKD cells. The experiment in a line: AVP-stimulated cystogenesis, 384-well high-content imaging. It counts as cell-based, human. The following applies: 14 days culture in the presence of AVP versus absence. How it is done:
Whole well automated high-content imaging was performed of ADPKD primary cells seeded in 384-well plates using the BioTek Cytation 5 system. Multiple well were captured per treatment. Uniform images were fed into deep learning algorithms for analysis. Stimuli like cAMP agonists and growth factors were not required, as the DBM RenalCyte media was sufficient to drive cystogenesis, as shown in FIG. 14.

Data set [7] relates to primary huADPKD cells. As to the kind of experiment: 384-well cyst prevention assay, percent viability versus DMSO control. It counts as cell-based, human. How it is done: (§1) A BioTek Cytation 5 (Biotek instruments, Winooski, Vt.) high content imaging and light-based high-throughput screening imaging system was used to image the huADPKD cells growing in 3D Biogels in 96-well and 384-well microliter plates. The Cytation 5 is coupled to a BioTek BioSpa 8 (a humidified CO2 incubator), such that trays can be extracted one at a time for analysis in the reader and then returned to the BioSpa.
While no drivers are required, they can be used if desired. Edge wells are filled with saline to mitigate edge effects
Whole well automated high-content imaging was performed of ADPKD primary cells seeded in 384-well plates using the BioTek Cytation 5 system. Multiple well were captured per treatment. Uniform images were fed into deep learning algorithms for analysis.
(§2) Concentrations of 30-1000 nM were tested for each, and data were expressed as percent viability versus DMSO control (n=12). […] Statistical analysis was performed using ANOVA.

For data set [8], the system named is primary human ADPKD cultures. The experiment in a line: 384-well cyst attack assay, 3D CellTiterGLO cell viability. In kind it is cell-based. How it is done: as §1, §2
Setting [9] is: incubated 4 days before 1 week of treatment.
[10] abbreviates: incubated 10 days before 1 week of treatment.
[11] abbreviates: from complete loss of viability signal.

`CO[C@H]1C[C@@H]2CC[C@@H](C)[C@@](O)(O2)C(=O)C(=O)N2CCCC[C@H]2C(=O)O[C@H]([C@H](C)C[C@@H]2CC[C@@H](O)[C@H](OC)C2)CC(=O)[C@H](C)/C=C(\C)[C@@H](O)[C@@H](OC)C(=O)[C@H](C)C[C@H](C)/C=C/C=C/C=C/1C` [rapamycin] had a solubility in [1] of around 30 µM (≈ 27.4 µg/mL). Besides, in the data set with primary huADPKD cells [2], the overt toxicity entry is “not overtly toxic”.
As to `COc1cc(Nc2c(C#N)cnc3cc(OCCCN4CCN(C)CC4)c(OC)cc23)c(Cl)cc1Cl` [bosutinib], in the data set with primary huADPKD cells [3], the overt cell cytotoxicity result is “no overt cell cytotoxicity”; the “effect on cyst appearance and expansion” value was “no effect”. In addition, the “increase in size of a small cyst” value in the data set on primary huADPKD cells [2] (in 1-2 days) is reported as 2 fold.
Consider `Cc1ccc(NC(=O)C2(c3ccc4c(c3)OC(F)(F)O4)CC2)nc1-c1cccc(C(=O)O)c1` [VX-809], for which the “extent of inhibition, in words” value with ADPKD cell cultures [4] (setting [9]) was “only a partial effect and only at the highest concentration”; in the data set on ADPKD cell cultures [5] (setting [10]), “only a partial effect and only at the highest concentrations”.
Take `N=C(N)NC(=O)c1nc(Cl)c(N)nc1N` [Amiloride, amiloride]: in [6], the “change of transepithelial resistance, in words” value is “increase in resistance”.
In the case of `NC(=O)CC[C@@H]1NC(=O)[C@H](Cc2ccccc2)NC(=O)[C@H](Cc2ccc(O)cc2)NC(=O)[C@@H](N)CSSC[C@@H](C(=O)N2CCC[C@H]2C(=O)N[C@@H](CCCN=C(N)N)C(=O)NCC(N)=O)NC(=O)[C@H](CC(N)=O)NC1=O` [Arginine Vasopressin (AVP), Arginine Vasopressin], the cyst size result in the data set with ADPKD cells was “more larger on average”.
`CC(C)(CO)c1cc2cc(NC(=O)C3(c4ccc5c(c4)OC(F)(F)O5)CC3)c(F)cc2n1C[C@@H](O)CO` [VX-661]: the IC50 in the data set on ADPKD cell cultures [4] (Homo sapiens, incubated 4 days before 1 week of treatment) amounted to 10 µM; with ADPKD cell cultures [5] (Homo sapiens, incubated 10 days before 1 week of treatment), 30 µM. In addition, the cytotoxicity entry with ADPKD cell cultures [4] (setting [11]) and in the data set with ADPKD cell cultures [5] (setting [11]) was “overt cytotoxicity” in each case. The “extent of inhibition, in words” value in the data set on ADPKD cell cultures [4] (setting [9]) and in the data set with ADPKD cell cultures [5] (setting [10]) was “complete inhibition to no signal” each time.
In the case of `Cc1ccccc1C(=O)Nc1ccc(C(=O)N2CCCC(O)c3cc(Cl)ccc32)c(C)c1` (stereo not shown) [tolvaptan], the solubility in [1] was around 30 µM (≈ 13.5 µg/mL). Besides, the cyst expansion result in the data set with primary huADPKD cells [3] (10 and 30 micromolar) is on record as “may have slowed cyst expansion”. In the data set on primary huADPKD cells [3], the overt cell cytotoxicity entry is listed as “no overt cell cytotoxicity”; the “effect on cyst appearance and expansion” value is reported as “little effect”. The molecule also came in with an IC50 in the data set on primary huADPKD cells [7] (Homo sapiens, cyst prevention assays in 384-well plates, FIG. 24) above 10 µM. For the same molecule, in the data set with primary huADPKD cells [7] (cAMP stimulated), the “efficacy in cAMP stimulated assays” value is on record as “only slightly more effective”. In addition, in the data set on primary huADPKD cells [7] (cyst prevention assays, FIG. 23), the “concentrations at which effective” value is “only at mid-micromolar concentrations”. Moreover, the “efficacy, percent viability versus DMSO control” value in the data set on primary huADPKD cells [7] (prevention assay, 30-1000 nM) was “ineffective”. Besides, in the data set on ADPKD cell cultures [5] (setting [10]), the “extent of inhibition, in words” value is “only a partial effect and only at the highest concentrations”. The molecule further returned an inhibition at 10 µM in data set [8] (Homo sapiens, 10-fold higher concentration (10 μM), 2 weeks incubation, then 1-week treatment) of around 20%. For the same molecule, in [8] (attack assay, 30-1000 nM), the “efficacy, percent viability versus DMSO control” value is reported as “ineffective”. Also, the “size of the smaller cyst” value in the data set on primary huADPKD cells [2] (6 days) was “quickly reduced in size”. Also, in the data set with primary huADPKD cells [2] (week-long treatment), the “size of the large cyst” value is reported as “doubled in size but then decreased in size to a slightly reduced size”.
